Test results published in article PMC3269340, “Pharmacokinetics of memantine in rats and mice” (PLoS Currents, 2012).

Experiment: in vivo
Details: male, C57Bl/6, mouse
Procedure: The goals of these studies were to evaluate the PK of memantine (hydrochloride salt) in Sprague-Dawley rats and C57Bl/6 mice following a single intravenous bolus (iv; 1 mg eq./kg), oral gavage (po; 1 and 10 mg eq./kg), or subcutaneous (sc; 1 and 10 mg eq./kg) administration.
Sprague Dawley (SD) rats (138 adult males), and C57Bl/6 mice (140 adult males), were obtained (Hilltop Laboratories, Scottsdale, PA); 123 per species were used in the study and the remainder provided blank matrix. Animals were individually identified by tail markings and were acclimated to the study environment for 16-21 days prior to dose administration. Animals were individually housed in suspended wire caging, and were kept on a 12h/12h light/dark cycle except when interrupted for study procedures. Average room temperature was regulated in the range 18 to 29°C, average relative humidity of 30-70%, and an average daily airflow >10 fresh air changes/h. Animals were fed LabDiet^Ò Certified Rodent Diet 5002 Meal food ad libitum, except during fasting prior to dose administration, and had access to water ad libitum.
Memantine was dosed as a solution in physiological saline as a single dose via intravenous bolus (1 mg eq./kg), oral gavage (po; 1 and 10 mg eq./kg), or subcutaneous (sc; 1 and 10 mg eq./kg) administration. The concentration of memantine in the 1 mg eq./kg iv, po, and sc solutions dosed to rats was 1 mg eq./mL, and the dose volume was 1 mL/kg. The concentration of memantine for the same dose level administered to mice was 0.2 mg eq./mL, and the dose volume was 5 mL/kg. The concentration of memantine in the 10mg eq./kg po and sc solutions was 5 mg eq./mL and the dose volume was 2 mL/kg for both rats and mice.
Details of the dose administration, body weights, clinical observations, plasma and brain sample collection and preparation are not shown in this report but are available upon request. Blood (for preparation of plasma) and brain samples were collected at 0.08, 0.25, 0.5, 1, 2, 4, 8, and 24h post-dose.
Since all time points were terminal, mean memantine concentrations per time point were used to calculate the composite PK parameters by non-compartmental analysis using WinNonlin program, version 5.2 (Pharsight Corp., Mountain View, California). A model was selected based on the vascular (iv bolus) or extravascular (po or sc) routes of administration. For the iv route, plasma concentration at time zero was back extrapolated from the first two observed post dose plasma concentrations. For the po and sc routes, concentration at time zero was assumed to be zero. Plasma and tissue concentrations below the limit of quantitation were treated as absent samples for the purpose of calculating the mean plasma concentration values or for calculating PK parameters.
The area under the plasma concentration versus time curve (AUC) was calculated using the linear trapezoidal method (linear interpolation). When appropriate, the terminal elimination phase of the PK profile was estimated based on the best fit (r^2) using at least the last three observed concentrations. PK parameters describing the systemic exposure of memantine in plasma and brain were estimated from observed (rather than predicted) plasma/brain concentrations, the dosing regimen, the AUC, and the terminal elimination phase rate constant (kel) for each group. The portion of the AUC from the last measurable concentration to infinity was estimated from the equation Ct/kel, where Ct represents the last measurable concentration. The extrapolated portion of the AUC was used for the determination of AUC0-∞. The percent bioavailability (%F) was calculated by dividing the dose normalized extravascular plasma AUC0-∞ by the dose normalized iv plasma AUC0-∞ times 100. The bioavailability calculations assumed concentrations were in the linear range.
Concentrations of memantine in rat and mouse plasma and brain were determined using an LC-MS/MS assay developed at ABC Laboratories.

SMILES: CC12CC3CC(C)(C1)CC(N)(C3)C2 [memantine]
- Cmax and exposures increase, fold more than dose-proportional: ~ 1.5 fold
- Cmax/Cmin ratios: > 100
- Contribution of active transport to clearance: > 100%
- delay in Tmax for brain compared to plasma: 0.25 to 1.5 h
- elimination half-life: < 4 h
- total systemic clearance, times higher than GFR: ~4.5 fold
- C max/ C min ratio (10 mg/kg): 760
- concentration at 24 h (10 mg/kg): 10 nM
- Tmax (10 mg/kg, T max): 0.5 to 1 h
- Tmax (Tmax after extravascular administration): 0.25 to 0.5 h
- half-life (brain elimination half-lives after extravascular administrations): 2.16 to 3.05 h
- half-life (elimination half-life): 3 to 4 h
- Cmax (in vivo, iv, 1 mg/kg): 7700 nM
- Cmax (in vivo, sc, 1 mg/kg): 527 nM
- Half-life (t½) (iv, 1 mg/kg): 2.98 h
- MRT inf (iv, 1 mg/kg): 2.35 h
- clearance (iv, 1 mg/kg): 63.5 mL/min/kg
- half-life (iv, 1 mg/kg, Half-life (t½)): 1.97 h
- Tmax (iv, 1 mg/kg, Observed Tmax): 1 h
- half-life (iv, t 1/2): 3 h
- bioavailability (po): 85%
- Half-life (t½) (po, 1 mg/kg): 3.02 h
- bioavailability (po, 1 mg/kg): 84.6%
- AUC(0-inf) (po, 1 mg/kg): 1.2 µM·h
- Cmax (po, 1 mg/kg, C max): 500 nM
- half-life (po, 1 mg/kg, Half-life (t½)): 1.86 h
- Tmax (po, 1 mg/kg, Observed Tmax): 0.5 h
- Tmax (po, 1 mg/kg, T max): 0.5 h
- Half-life (t½) (po, 10 mg/kg): 3.05 h
- bioavailability (po, 10 mg/kg): 125%
- AUC(0-inf) (po, 10 mg/kg): 18.2 µM·h
- Cmax (po, 10 mg/kg, C max): 7600 nM
- half-life (po, 10 mg/kg, Half-life (t½)): 2.92 h
- Half-life (t½) (sc, 1 mg/kg): 2.16 h
- bioavailability (sc, 1 mg/kg): 97.8%
- half-life (sc, 1 mg/kg, Half-life (t½)): 1.64 h
- Cmax (sc, 1 mg/kg, Observed Cmax): 5360 nM
- Half-life (t½) (sc, 10 mg/kg): 3.00 h
- bioavailability (sc, 10 mg/kg): 150%
- half-life (sc, 10 mg/kg, Half-life (t½)): 3.07 h
